Source: US20150181901A1, “Compositions and Methods for Tissue Storage” (priority 2012, published 2015)
Where “and” joins values, the source holds several entries; their conditions need not be identical. Equal values may be shown once.

Tests used:
[1] = Freeze/thaw cycling of meat soaked in trehalose solution: fluid loss and weight loss (pork); details: for weight loss: post 3 freeze/thaw cycles, first week (FIG. 4), 0% trehalose about 10%
Experimental: (§1) Variables included the high and low temperatures of the temperature range, and frequency of the freeze/thaw cycles. In one embodiment, treated meat samples were placed in a minus 40 degrees C. freezer for 24 hours, followed by room temperature for 6 hours, which was followed by 18 hours at 0.5 to 5.0 degrees C., in a refrigerator. This cycle was immediately followed by minus 40 degrees C. freezer for 24 h, room temperature for 6 h, which was followed by 18 hours at 0.5 to 5.0 degrees C., in a refrigerator. Chicken breast fillet, pork chops, and London broil beef, were obtained from local suppliers and were cut in water. Each type of meat was cut into four even-sized pieces, and the weight was recorded. Each piece was immersed separately in either water or in test solution, e.g., trehalose or saline, for 12 h. The meat was removed from the water, and excess water was blotted off. Place each sample in a Ziploc® plastic bag. Weights were recorded. The weighed samples were set in a container, and placed in a freezer, where each sample was at the same level (same level relative to the floor of the freezer). The freezer (minus 40 degrees C.) was Puffer Hubbard Model #4017A-U-A, Harris Manufacturing Co., North Billerica, Mass. […] Then, the following steps were used: Repeat Steps 1 to 4 until a total of 14 days have passed. Step 1. After 24 h in the freezer, remove the container bearing all of the samples. Take photographs of the samples and record the date. Thawing occurs when the meat is taken from the freezer and left in the refrigerator. Although the meat is completely thawed prior to 24 hours of incubation in the refrigerator, the time of 24 hours was used to standardize the procedure. Step 2. Place all samples (still in the same container) in refrigerator. Step 3. After in the refrigerator 24 h, then remove the container with all the samples, and take photos and record the date. Step 4. Place samples, still in the same container, in the freezer. As mentioned above, repeat Steps 1 to 4 until a total of 14 days have passed. Step 5. After the last sample photos were taken, samples were removed from its bag, and the weight was recorded after removing excess ice from the sample. The ice is left in the bag. Replace sample in Ziploc® bag. Place all bags at room temperature until all the ice has melted, and pour fluid into clear plastic tube with graduated side (fluid from each bag), and record the volumes of the fluid. Alternatively, volume can be determined with a pipette. Step 6. Place all weighed meat samples into the same Ziploc® bag, and place back in the refrigerator to thaw. After thawing, remove the meat samples from each bag, and pour excess fluid into graduated cylinder tubes (the tubes that held the ice that had melted), and record additional volumes. Between the first week (three freeze/thaw cycles) and the second week (three more freeze/thaw cycles), there was no re-exposure to trehalose. All samples were removed from the refrigerator. Liquid was in most of the sample bags. Fluid was removed by a pipette and the volume was recorded, and the meat sample was weighed. Samples of about 1-2 grams were taken using a no. 10 scalpel, and placed in formalin. FIG. 6 discloses the volume of fluid lost during the second week of freeze/thaw cycles.

[2] = Freeze/thaw cycling of meat soaked in trehalose solution: fluid loss and weight loss (beef); details: for weight loss: post 3 freeze/thaw cycles, first week (FIG. 4), 0% trehalose about 18%
Experimental: as §1

[3] = Freeze/thaw cycling of meat soaked in trehalose solution: fluid loss and weight loss (chicken)
Experimental: as §1

[4] = 0%, 5%, 10%, 15% trehalose, three freeze/thaw cycles, first week (FIG. 1)
[5] = cumulative, first and second week (FIG. 12)
[6] = second week of freeze/thaw cycles (FIG. 8)
[7] = second week of freeze/thaw cycles, no re-exposure to trehalose

OC[C@H]1O[C@H](O[C@H]2O[C@H](CO)[C@@H](O)[C@H](O)[C@H]2O)[C@H](O)[C@@H](O)[C@@H]1O [trehalose, trehalose dihydride]
effect of trehalose concentration on volume of fluid lost [1, 4]: Increasing the concentration of trehalose resulted in decreasing volumes of fluid lost | loss of water/10 grams of meat ([1]; 15% trehalose, first week (FIG. 5), 0% trehalose 1.0): 0.4 mL/10 grams of meat | trehalose concentration with maximal effect on cumulative weight loss [1, 5]: 15% | effect of trehalose on weight loss ([1]; first week (FIG. 18)): reduction was progressively effective for 5%, 10%, and 15% trehalose | effect of trehalose on weight loss ([1]; second week (FIG. 18)): weight reduction seemed to plateau when trehalose was in the range of 5-15% trehalose | trehalose concentration with lowest weight loss [1, 6]: 5% (or 15%) | trehalose concentration with maximal effect on reducing fluid loss [1, 7]: 15% | weight loss ([1]; soaked in 5% trehalose): about 9% | weight loss ([1]; soaked in 10% trehalose): about 8% | weight loss ([1]; soaked in 15% trehalose): about 5% | effect of trehalose concentration on volume of fluid lost [2, 4]: Increasing the concentration of trehalose resulted in decreasing volumes of fluid lost | loss of water/10 grams of meat ([2]; 10% trehalose, first week (FIG. 5), 0% trehalose about 1.8): about 0.9 mL/10 grams of meat | fluid loss for the first week relative to fluid loss for the second week ([2]; at each respective trehalose value (FIG. 16)): 2-3 times | trehalose concentration with maximal reduction in cumulative fluid loss ([2]; cumulative, first and second week): 10% and 10-15% | trehalose concentration with maximal effect on cumulative weight loss [2, 5]: 10% and 10-15% | effect of trehalose on weight loss ([2]; first week (FIG. 19)): reduction was progressively effective for 5%, 10%-15% trehalose | effect of trehalose on weight loss ([2]; second week (FIG. 19)): weight reduction seemed to plateau when trehalose was in the range of 5-15% trehalose | trehalose concentration with lowest weight loss [2, 6]: 15% | trehalose concentration with maximal effect on reducing fluid loss [2, 7]: 10% | weight loss ([2]; soaked in 5% trehalose): ~15% | weight loss ([2]; soaked in 10% trehalose): about 8% | weight loss ([2]; soaked in 15% trehalose): about 10% | loss of water/10 grams of meat ([3]; chicken, 15% trehalose, first week (FIG. 5), 0% trehalose about 1.8): 0.47 mL/10 grams of meat | trehalose concentration with maximal effect on cumulative weight loss ([3]; chicken, cumulative, first and second week (FIG. 12)): 15% | effect of trehalose on weight loss ([3]; chicken, first week (FIG. 17)): reduction was about the same (plateau in trehalose effect) for 5%, 10%, and 15% trehalose | effect of trehalose on weight loss ([3]; chicken, second week (FIG. 17)): weight reduction by trehalose was only found at 10% and 15% trehalose | trehalose concentration with lowest weight loss ([3]; chicken, second week of freeze/thaw cycles (FIG. 8)): 15% | trehalose concentration with maximal effect on reducing fluid loss ([3]; chicken, second week of freeze/thaw cycles, no re-exposure to trehalose): 15% | weight loss ([3]; chicken, soaked in 5%, 10%, or 15% trehalose, post-soak weight vs post 3 freeze/thaw cycles, first week (FIG. 4), 0% trehalose 18%): 10-11% | effect of trehalose concentration on volume of fluid lost ([3]; poultry, 0%, 5%, 10%, 15% trehalose, three freeze/thaw cycles, first week (FIG. 1)): Increasing the concentration of trehalose resulted in decreasing volumes of fluid lost
